Experimental data taken from ChEMBL document CHEMBL1201862, “PubChem BioAssay data set” (2004).
The source made the active and inactive calls.

Assays:
[1] = target: T1, Trace amine-associated receptor 1 (Homo sapiens, UniProt Q96RJ0); assay: Fluorescence-based cell-based high throughput dose response assay to identify agonists of the human trace amine associated receptor 1 (TAAR1).; type: functional
T1 sequence (Q96RJ0 whole entry): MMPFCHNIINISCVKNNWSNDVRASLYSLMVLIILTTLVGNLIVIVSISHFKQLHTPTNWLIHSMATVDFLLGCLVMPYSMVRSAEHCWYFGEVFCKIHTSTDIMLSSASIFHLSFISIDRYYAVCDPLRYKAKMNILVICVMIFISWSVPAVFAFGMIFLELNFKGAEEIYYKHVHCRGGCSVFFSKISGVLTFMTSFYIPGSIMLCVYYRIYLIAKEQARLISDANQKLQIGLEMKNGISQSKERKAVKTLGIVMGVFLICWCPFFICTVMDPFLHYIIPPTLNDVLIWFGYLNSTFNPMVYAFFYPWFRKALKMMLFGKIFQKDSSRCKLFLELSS

cells [2] = type: functional, cell-based
[3] = target: T2, Short transient receptor potential channel 4 (Mus musculus, UniProt Q9QUQ5); assay: calcium entry via TRPC4 opening agents – cell-based, HEK293 TRPC4/mu-opioid, Fluo-4 calcium, dose response (AID 434937); type: functional
T2 sequence (Q9QUQ5 whole entry): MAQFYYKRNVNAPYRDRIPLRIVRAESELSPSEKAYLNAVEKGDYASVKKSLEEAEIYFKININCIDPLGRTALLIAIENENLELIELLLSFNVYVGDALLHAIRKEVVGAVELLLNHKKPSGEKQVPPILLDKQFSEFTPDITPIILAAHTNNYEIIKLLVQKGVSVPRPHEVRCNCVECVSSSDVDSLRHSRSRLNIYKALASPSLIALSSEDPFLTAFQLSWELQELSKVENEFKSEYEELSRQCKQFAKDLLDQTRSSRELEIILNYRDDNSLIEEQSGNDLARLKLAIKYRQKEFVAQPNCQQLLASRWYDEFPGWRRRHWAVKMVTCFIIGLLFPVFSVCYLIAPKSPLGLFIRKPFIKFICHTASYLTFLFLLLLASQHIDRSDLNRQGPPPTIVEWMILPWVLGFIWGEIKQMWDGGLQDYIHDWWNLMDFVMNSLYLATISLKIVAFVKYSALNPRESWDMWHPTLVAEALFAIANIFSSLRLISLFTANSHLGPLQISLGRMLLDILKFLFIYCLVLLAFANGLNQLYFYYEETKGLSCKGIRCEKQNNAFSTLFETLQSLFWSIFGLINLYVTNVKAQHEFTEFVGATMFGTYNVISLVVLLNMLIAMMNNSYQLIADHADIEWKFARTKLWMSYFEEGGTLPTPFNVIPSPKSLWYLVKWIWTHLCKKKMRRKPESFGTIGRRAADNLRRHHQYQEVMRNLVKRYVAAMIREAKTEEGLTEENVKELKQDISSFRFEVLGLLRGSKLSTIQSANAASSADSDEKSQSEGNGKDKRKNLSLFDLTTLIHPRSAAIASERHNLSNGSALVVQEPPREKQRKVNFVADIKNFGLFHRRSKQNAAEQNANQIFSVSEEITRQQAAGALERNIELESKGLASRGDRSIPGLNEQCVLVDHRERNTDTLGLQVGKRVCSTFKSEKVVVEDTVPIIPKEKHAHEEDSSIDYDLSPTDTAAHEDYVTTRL

[4] = target: T1, Trace amine-associated receptor 1; assay: Counterscreen for agonists of the human trace amine associated receptor 1 (hTAAR1): Fluorescence-based cell-based high throughput dose response assay to identify hTAAR1 agonist that also desensitize TAAR1 receptor response.; type: functional
cells [5] = type: functional, cell-based; remark: listed apart in the source
[6] = target: T2, Short transient receptor potential channel 4; assay: block of DAMGO-driven TRPC4 calcium entry – cell-based, HEK293 TRPC4/mu-opioid, Fluo-4 calcium, dose response (AID 434942); type: functional;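 note: potency of inhibitors blocking the TRPC4 calcium response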
[7] = target: T1, Trace amine-associated receptor 1; assay: Counterscreen for antagonists of the human trace amine associated receptor 1 (hTAAR1): Fluorescence-based cell-based high throughput dose response assay to identify TAAR1 Agonists.; type: functional
[8] = target: T1, Trace amine-associated receptor 1; assay: Fluorescence-based cell-based high throughput dose response assay to identify antagonists of the human trace amine associated receptor 1 (TAAR1).; type: functional
[9] = Counterscreen for […] of the human trace amine associated receptor 1 (TAAR1): Fluorescence-based cell-based high throughput dose response assay to identify nonselective Ga16 agonists.; type: functional
[10] = Counterscreen for antagonists of the human trace amine associated receptor 1 (hTAAR1): Fluorescence-based cell-based high throughput dose response assay to identify nonselective Ga16 antagonists.; type: functional
[11] = target: Fructose-bisphosphate aldolase (Mycobacterium tuberculosis, UniProt P9WQA3); assay: Fluorescence-based biochemical high throughput dose response assay for inhibitors of the fructose-bisphosphate aldolase (FBA) of M. tuberculosis.; type: functional
A549 = assay: viability loss in A549 cells – cell-based, plate reader, cherry-pick samples, cytotoxicity control, dose response (AID 687028); type: functional; conditions: Homo sapiens
[12] = human cervical cancer cell viability loss – 24 h, plate reader, dry powder, cytotoxicity control, dose response (AID 686928); type: functional, cell-based; conditions: HeLa

Fructose-bisphosphate aldolase, sequence (P9WQA3 whole entry): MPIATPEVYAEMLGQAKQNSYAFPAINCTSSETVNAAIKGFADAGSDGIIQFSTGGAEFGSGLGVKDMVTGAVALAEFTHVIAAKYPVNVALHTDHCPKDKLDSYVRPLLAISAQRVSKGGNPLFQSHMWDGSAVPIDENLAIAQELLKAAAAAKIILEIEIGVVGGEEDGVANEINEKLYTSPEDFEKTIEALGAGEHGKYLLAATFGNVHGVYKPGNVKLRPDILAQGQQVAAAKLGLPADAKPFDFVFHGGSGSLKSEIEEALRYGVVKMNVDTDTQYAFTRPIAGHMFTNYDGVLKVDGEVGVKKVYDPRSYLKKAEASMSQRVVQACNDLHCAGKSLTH

SMILES: OC(CNC1CCCc2ccccc21)COc1c(Cl)cccc1Cl (stereo not drawn)
- EC50 [1]: 1.57 µM (active)
- IC50 (cells [2]): 13.9 µM (inactive)
- EC50 [3]: 5.96 µM (active)
- IC50 [4]: 8.84 µM (active)
- EC50 (cells [5]): 11.7 µM (inactive)
- EC50 [6]: 1.33 µM (active)

SMILES: Cc1ccc(CSCC(=O)Nc2cc(S(=O)(=O)N3CCOCC3)ccc2OCC(F)(F)F)cc1
- EC50 [7]: > 29.9 µM (inactive)
- IC50 [8]: 1.25 µM (active)
- EC50 [9]: > 29.9 µM (inactive)
- IC50 [10]: > 29.9 µM (inactive)

SMILES: COc1cccc(/C=C/c2nc(S(=O)(=O)c3ccccc3)c(N3CCC(C(N)=O)CC3)o2)c1
- IC50 [11]: 0.676 µM (active)

SMILES: C[C@H](CO)N1C[C@H](C)[C@H](CN(C)C(=O)Nc2ccc(C(F)(F)F)cc2)OCCCC[C@H](C)Oc2ccc(NS(=O)(=O)c3ccc(F)cc3)cc2C1=O
- AC50 (A549): 33.6 µM (active)

SMILES: Cc1ccc(-n2cnc(=O)c3ccccc32)cc1Cl
- AC50 [12]: > 160 µM (inactive)
